{
  "source": "paper PMC11462260",
  "about": "“Anthricin-induced hyperactive proteasome and its molecular mechanism” (Biochemistry and Biophysics Reports, 2024)",
  "target": "T1, human 20S proteasome (Homo sapiens, UniProt P28072+P28074+Q99436)",
  "T1 construct": "gene PSMB6; native 20S core particle from human erythrocytes (commercial), 28 subunits of 14 types, lysine-biotinylated, on streptavidin beads",
  "assay": "pull-down on biotinylated proteasome beads, LC-MS/MS of eluate",
  "conditions": "20 uM anthricin, 250 pmol proteasome, 30 min, room temperature, D-PBS with 0.1 % BSA; binding site not mapped experimentally",
  "data": [
    {"smiles": "COc1cc([C@@H]2c3cc4c(cc3C[C@H]3COC(=O)[C@@H]32)OCO4)cc(OC)c1OC", "note": "[anthricin]", "values": [
      {"measurement": "pull-down on biotinylated proteasome beads, LC-MS/MS of eluate", "value": "When anthricin was mixed with the proteasome-immobilized beads, a clear peak corresponding to anthricin was detected"}
    ]}
  ]
}
